One assay concerns Escherichia coli. Put plainly: Antibacterial activity against Escherichia coli. The format is functional.
The test system of another assay is Candida albicans. Put plainly: Antifungal activity against Candida albicans. The format is functional.
A short description of assay [1]: Inhibition of PP1.
Assay [2] can be described thus: Inhibition of PP2A.

In brackets after ≈: the same amount, converted by molar mass. Activity calls are given as the source filed them. The rule behind the calls is not given here.

For two molecules, MIC and Activity results are on record in ChEMBL document CHEMBL1150888, “Dragmacidins: new protein phosphatase inhibitors from a southern australian deep-water marine sponge, spongosorites sp” (1998).

For the molecule `CC(C1=CNC(N)N1)c1ccc(O)c2[nH]cc(-c3cnc(-c4c[nH]c5cc(Br)ccc45)c(=O)[nH]3)c12` (configuration not stated) [DRAGMACIDIN D], the MIC is 16 µg/mL (≈ 30.1 µM) with Escherichia coli and 20 µg/mL (≈ 37.6 µM) in the assay on Candida albicans. For the same molecule, the result in assay [1] was Active.
For `C[C@@H]1c2ccc(O)c3[nH]cc(c23)-c2[nH]c(=O)c(-c3c[nH]c4cc(Br)ccc34)nc2[C@@]12CNC(N)=N2` [DRAGMACIDIN E], the outcome in assay [2] and in assay [1] was Active. The values for the MIC in the assay on Escherichia coli and against Candida albicans were 22 µg/mL (≈ 41.5 µM) and 36 µg/mL (≈ 67.9 µM), respectively.
